Reference: PubChem BioAssay (NCI)
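Interpolation was linear, between the two tested concentrations surrounding the appropriate level; five concentrations were tested over 48 hours in 96-well plates. At the GI50, growth is halved. At the TGI there is no net growth.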

Legend:
Assay in all cases: DTP human tumour cell line panel, 48 h
CCRF-CEM leukemia = system: CCRF-CEM leukemia
IGROV1 ovarian = system: IGROV1 ovarian
OVCAR-3 ovarian = system: OVCAR-3 ovarian
SF-268 CNS = system: SF-268 CNS
SF-295 CNS = system: SF-295 CNS
SK-MEL-2 melanoma = system: SK-MEL-2 melanoma
SNB-19 CNS = system: SNB-19 CNS

Structure (SMILES)	TGI (CCRF-CEM leukemia)	TGI (IGROV1 ovarian)	TGI (OVCAR-3 ovarian)	TGI (SF-268 CNS)	TGI (SF-295 CNS)	TGI (SK-MEL-2 melanoma)	TGI (SNB-19 CNS)	GI50 (CCRF-CEM leukemia)	GI50 (IGROV1 ovarian)	GI50 (OVCAR-3 ovarian)	GI50 (SF-268 CNS)	GI50 (SF-295 CNS)	GI50 (SK-MEL-2 melanoma)	GI50 (SNB-19 CNS)
O=C(/C=C/c1c(O)ccc2ccccc12)c1ccccc1	> 100 µM	> 100 µM	> 100 µM	> 100 µM	> 100 µM	> 100 µM	> 100 µM							
O=C1NC2OCC(O)C(O)C2O1 (centres undefined)	> 100 µM	> 100 µM	> 100 µM	> 100 µM	> 100 µM	> 100 µM	> 100 µM							
CCc1ccc(Nc2ccc([N+](=O)[O-])cc2[N+](=O)[O-])cc1	> 100 µM	> 100 µM	> 100 µM		> 100 µM	> 100 µM								
CC(C)c1cc2c(O)c(c1)Cc1cc(C(C)C)cc(c1O)Cc1cc(C(C)C)cc(c1O)Cc1cc(C(C)C)cc(c1O)C2	> 100 µM	> 100 µM	> 100 µM	> 100 µM	> 100 µM	> 100 µM	> 100 µM							
COC(=O)C(=O)C(C(=O)C=C(C)C)C(=O)C(=O)Nc1ccc(C)cc1C (centres undefined)	> 100 µM	> 100 µM	> 100 µM	> 100 µM	> 100 µM	> 100 µM	> 100 µM							
COc1ccc(CNc2nc3cc(C(F)(F)F)ccc3nc2C)cc1OC	> 100 µM	> 100 µM	> 100 µM	> 100 µM	> 100 µM	70.1 µM	> 100 µM							
CCOc1ccc2c(c1)[n+]([O-])c(-c1nc3ccccc3s1)c(N)[n+]2[O-]	> 100 µM	> 100 µM	> 100 µM	> 100 µM	> 100 µM	> 100 µM	> 100 µM							
COC1=CC2(C=CC1=O)c1cc(OC)c(OC)cc1CCN2C(=O)c1ccccc1 (centres undefined)	> 100 µM	> 100 µM	> 100 µM		> 100 µM		> 100 µM							
CC(C)c1ccc(C(c2ccc(OCC(=O)O)cc2)c2ccc(C(C)C)cc(=O)c2O)c(O)c(=O)c1	85.2 µM	21 µM	8.31 µM		55.1 µM		28 µM							
N#CCC(=O)NC1C2CC3CC(C2)CC1C3 (centres undefined)	> 100 µM	59.1 µM	32 µM	35.7 µM	32 µM	55.7 µM	32.5 µM							
COC(C(O)c1ccc2c(c1)OCO2)P(=O)(c1ccccc1)c1ccccc1 (centres undefined)	> 100 µM	> 100 µM	40.3 µM	> 100 µM		> 100 µM	> 100 µM							
N.N.O=C([O-])P(=O)([O-])[O-].[Na+].[Pt+4]	> 100 µM	> 100 µM	> 100 µM	> 100 µM	> 100 µM	> 100 µM	> 100 µM	> 100 µM	> 100 µM	> 100 µM	> 100 µM	> 100 µM	> 100 µM	> 100 µM
OC/C=C(\I)CCCOCOCc1ccccc1	46.1 µM	> 100 µM	> 100 µM	> 100 µM	> 100 µM	47.7 µM	> 100 µM							
C/C=C1/C(=C/c2[nH]c(/C=c3\[nH]/c(=C/C4=NC(=O)C(CC)=C4C)c(C)c3CCC(=O)O)c(CCC(=O)O)c2C)NC(=O)C1C (centres undefined)	> 150 µg/mL	> 150 µg/mL		> 150 µg/mL		> 150 µg/mL	> 150 µg/mL	> 150 µg/mL	> 150 µg/mL		> 150 µg/mL		> 150 µg/mL	> 150 µg/mL
COc1cc2c(c(OC)c1)C1(CC(CC#N)C2)SCCS1 (centres undefined)	> 100 µM	> 100 µM	> 100 µM	> 100 µM		> 100 µM	> 100 µM							
CCCS(=O)(=O)/C(=C(\c1ccc(Br)cc1)S(=O)(=O)CCC)c1ccc(Br)cc1	> 10 µM	> 10 µM	> 10 µM	> 10 µM	> 10 µM	> 10 µM	> 10 µM							
Cc1[nH]c2ccccc2c1C1Cc2ccccc2N1C(=O)/C(Cl)=C/c1ccccc1 (centres undefined)	> 100 µM	> 100 µM	> 100 µM	> 100 µM	> 100 µM	> 100 µM	> 100 µM							
N#C/C(=C\c1cc2ccccc2c2ccccc12)c1ccccc1	36.2 µM	> 51.8 µM	> 25.6 µM	> 53.9 µM	19.9 µM	15.4 µM	45.4 µM							
COC(=O)c1cc(C)c(C)c2c1NC(=O)CNC2=O	> 100 µM	> 100 µM	> 100 µM		> 100 µM	> 100 µM								
Fc1ccc(C2SCc3nc4ccccc4n32)cc1Cl (centres undefined)	87.4 µM			> 100 µM	98.1 µM		> 100 µM							
Cc1ccc(-c2cc(=O)c3cc(C)c(C)c(C(=O)O)c3o2)cc1C	> 100 µM	> 100 µM	> 100 µM		> 100 µM	> 100 µM	> 100 µM							
O=C(Nc1ccc(Cl)cc1Cl)C(=O)C(C(=O)c1ccncc1)C1OC(=O)c2ccccc21 (centres undefined)	> 100 µM	> 100 µM	> 100 µM	> 100 µM	> 100 µM		> 100 µM							
